These results are taken from patent US20050159599A1, “Cyclic compound, process for producing the same, and pest control agent” (priority 2002, published 2005).

For experiment [1], the system named is Spodoptera litura. Nature of the experiment: Insecticidal effect for Spodoptera litura by spraying treatment to host crop (Test Example 2). Type of experiment: in vivo. The conditions noted are these: 100 ppm, sprayed on soybean, third-instar larvae of Spodoptera litura, fifth day after; for pest or weed control at 100 ppm: 120 h, read-out: rate of dead pests (%). The protocol:
Insecticidal Effect for Spodoptera litura by Spraying Treatment to Host Crop
A pesticidal solution, which was prepared by dissolving 5 mg of test compound (represented by the compound Nos. in the above Examples) in 0.5-ml of acetone containing Tween 20 (trade name) and then diluting it to the prescribed concentration (100 ppm) with Dain (trade name, sticker) water diluted 5000-fold, was sprayed on a soybean whose primary leaves had developed completely with spray gun in the amounts wherein the pesticidal solution dripped. After drying the pesticidal solution, two primary leaves were cut off. The leaves were put into an ice cream cup (180 ml), and ten third-instar larvae of Spodoptera litura were set free therein. The cup was left in a temperature-controlled breeding room (25° C.). On the fifth day after, the number of surviving Spodoptera litura was examined. The rate of dead pests was calculated by the following formula. rate of dead pests (%)=(number of dead pests/number of test pests)×100

The subject of experiment [2] is Spodoptera litura. The experiment is described as follows: Insecticidal effect for Spodoptera litura by immersion treatment of host crop root (Test Example 4). The conditions noted are these: soybean root immersion 5 days, second-instar larvae of Spodoptera litura, fifth day after; for pest or weed control at 25 ppm: 120 h, read-out: rate of dead pests (%). Type of experiment: in vivo. The protocol: Insecticidal Effect for Spodoptera litura by Immersion Treatment of Host Crop Root Roots of primary leaves developing stage soybean was washed with tap water to remove soil, and then immersed in a pesticidal solution which was prepared by dissolving 5 mg of test compound (represented by the compound Nos. in the above Examples) in 0.5 ml of acetone containing Tween 20 ([…]) with ion-exchange water, and which was filled in a light-shielded Erlenmeyer flask (100 ml). On the fifth day after immersion of root, two primary leaves were cut off, and the leaves were put into an ice cream cup (180 ml). Ten second-instar larvae of Spodoptera litura were set free therein, and the cup was left in a temperature-controlled breeding room (25° C.). On the fifth day after, the number of surviving Spodoptera litura was examined. The rate of dead pests was calculated by the following formula. rate of dead pests (%)=(number of dead pests/number of test pests)×100

Turning to `CC(C)Sc1ccc(N2COCN(C(=O)c3c(F)cccc3F)C2=O)c(F)c1` [I-53], the “rate of dead pests (%)” value with Spodoptera litura [1] and in the experiment with Spodoptera litura [2] (25 ppm) was 100% each time.
`Cc1c(N2COCN(C(=O)c3c(F)cccc3F)C2=O)ccc(SC(F)(F)F)c1Cl` [I-122]: the “rate of dead pests (%)” value with Spodoptera litura [1] turned out to be 100%; with Spodoptera litura [2] (25 ppm) it was 95%.
Turning to `O=C(c1c(F)cccc1F)N1COCN(c2ccc(Cl)cc2)C1=O` [I-1, 3-(4-chlorophenyl)-5-(2,6-difluorobenzoyl)tetrahydro-4H-1,3,5-oxadiazin-4-one], in the experiment with Spodoptera litura [1], the pest or weed control at 100 ppm worked out at 100%. Further, in the experiment on Spodoptera litura [2] (25 ppm), the pest or weed control at 25 ppm was 100%.
Take `O=C(c1c(F)cccc1F)N1COCN(c2ccc(SC(F)(F)C(F)(F)F)cc2F)C1=O` [I-128, 3-(2,6-difluorobenzoyl)-5-[2-fluoro-4-(1,1,2,2,2-pentafluoroethylthio)phenyl]tetrahydro-4H-1,3,5-oxadiazin-4-one]: the pest or weed control at 100 ppm in the experiment with Spodoptera litura [1] was 100%. The pest or weed control at 25 ppm with Spodoptera litura [2] (25 ppm) amounted to 100%.
Consider `O=C(c1c(F)cccc1Cl)N1COCN(c2c(F)cc(SC(F)(F)F)cc2F)C1=O` [I-281], for which the “rate of dead pests (%)” value with Spodoptera litura [1] and in the experiment on Spodoptera litura [2] (25 ppm) was 100% in each case.
As to `O=C(c1c(F)cccc1F)N1CN=CN(c2ccc(Cl)cc2)C1=O` [V-1], the “rate of dead pests (%)” value in the experiment with Spodoptera litura [1] and with Spodoptera litura [2] (25 ppm) was 100% throughout.
Take `O=C(c1c(Cl)cccc1Cl)N1COCN(c2ccc([S+]([O-])C(F)(F)F)cc2F)C1=O` (stereo not shown) [I-399]: the “rate of dead pests (%)” value in the experiment with Spodoptera litura [1] and with Spodoptera litura [2] (25 ppm) was 100% in each case.
Regarding `CN1CN(CC(F)(F)F)C(=O)N(C(=O)c2c(F)cccc2F)C1` [III-144], the “rate of dead pests (%)” value with Spodoptera litura [2] (25 ppm) is listed as 100%.
`O=C(c1c(F)cccc1F)N1C[S+]([O-])CN(c2cc(Cl)c(F)c(Cl)c2F)C1=O` (stereo not shown) [II-11]: the “rate of dead pests (%)” value in the experiment with Spodoptera litura [1] and in the experiment on Spodoptera litura [2] (25 ppm) was 100% in each case.
Consider `O=C(c1c(F)cccc1F)N1COCN(CC(F)(F)F)C1=O` [I-40], for which the “rate of dead pests (%)” value in the experiment on Spodoptera litura [1] and with Spodoptera litura [2] (25 ppm) was 100% throughout.
For `CCCSc1ccc(N2COCN(C(=O)c3c(F)cccc3F)C2=O)c(F)c1` [I-50], the “rate of dead pests (%)” value with Spodoptera litura [2] (25 ppm) was found to be 100%.
Take `O=C(c1c(F)cccc1Cl)N1COCN(c2cc(Cl)c(SC(F)(F)F)cc2F)C1=O` [I-275]: the “rate of dead pests (%)” value in the experiment with Spodoptera litura [1] and with Spodoptera litura [2] (25 ppm) was 100% each time.
`C#CCN1CN(C(=O)c2c(F)cccc2F)C(=O)N(c2ccc(Cl)cc2)C1` [III-8]: the “rate of dead pests (%)” value in the experiment with Spodoptera litura [1] and in the experiment on Spodoptera litura [2] (25 ppm) was 100% in each case.
`O=C(c1c(F)cccc1F)N1COCN(c2cc(Cl)c(SC(F)(F)F)cc2F)C1=O` [I-98]: the “rate of dead pests (%)” value in the experiment with Spodoptera litura [1] amounted to 100%; in the experiment with Spodoptera litura [2] (25 ppm) it was 95%.
For `O=C(c1c(F)cccc1F)N1COCN(c2ccc(SC(F)(F)F)cc2Cl)C1=O` [I-74], in that order: 100% and 100%.
The corresponding values for `O=C(c1c(F)cccc1Cl)N1COCN(c2ccc([S+]([O-])C(F)(F)F)c(Cl)c2)C1=O` (stereo not shown) [I-255] are 100% and 100%.
As for `O=C(c1c(F)cccc1F)N1COCN(c2ccc([S+]([O-])C(F)(F)F)c(Cl)c2Cl)C1=O` (stereo not shown) [I-93], the “rate of dead pests (%)” value with Spodoptera litura [1] and in the experiment on Spodoptera litura [2] (25 ppm) was 100% in each case.
Regarding `O=C(c1c(F)cccc1Cl)N1COCN(c2c(F)cc(SC(F)(F)F)cc2Cl)C1=O` [I-278], the “rate of dead pests (%)” value in the experiment with Spodoptera litura [1] was determined as 100%; with Spodoptera litura [2] (25 ppm), 90%.
On to `CC(=O)N1CN(C(=O)c2c(F)cccc2F)C(=O)N(c2ccc(Cl)cc2)C1` [III-9, 5-acetyl-1-(4-chlorophenyl)-3-(2,6-difluorobenzoyl)tetrahydro-1,3,5-triazin-2(1H)-one], for which the pest or weed control at 25 ppm in the experiment with Spodoptera litura [2] (25 ppm) came to 95%.
On to `O=C(c1c(Cl)cccc1Cl)N1COCN(c2ccc([S+]([O-])C(F)F)cc2F)C1=O` (stereo not shown) [I-396], for which, in the experiment on Spodoptera litura [2] (25 ppm), the “rate of dead pests (%)” value amounted to 100%.
For `C#CCSc1ccc(N2COCN(C(=O)c3c(F)cccc3F)C2=O)c(F)c1` [I-62], the “rate of dead pests (%)” value in the experiment on Spodoptera litura [1] and in the experiment with Spodoptera litura [2] (5 ppm (so in the source)) was 100% each time.
Regarding `O=C(c1c(F)cccc1Cl)N1COCN(c2ccc([S+]([O-])C(F)(F)F)cc2Cl)C1=O` (stereo not shown) [I-252], the “rate of dead pests (%)” value in the experiment on Spodoptera litura [1] and with Spodoptera litura [2] (25 ppm) was 100% each time.
Turning to `O=C(c1c(F)cccc1F)N1C=NCN(c2cc(Cl)c(F)c(Cl)c2F)C1=O` [IV-4, 3-(3,5-dichloro-2,4-difluorophenyl)-1-(2,6-difluorobenzoyl)-3,4-dihydro-1,3,5-triazin-2(1H)-one], the pest or weed control at 25 ppm with Spodoptera litura [2] (25 ppm) turned out to be 100%.
With `O=C(c1c(F)cccc1Cl)N1COCN(c2ccc(SC(F)(F)F)cc2Cl)C1=O` [I-251], the “rate of dead pests (%)” value in the experiment with Spodoptera litura [2] (25 ppm) was found to be 90%.
For `O=C(c1c(F)cccc1F)N1COCN(c2c(F)cc(SC(F)(F)F)cc2Cl)C1=O` [I-101], the “rate of dead pests (%)” value in the experiment on Spodoptera litura [1] and with Spodoptera litura [2] (25 ppm) was 100% throughout.
In the case of `O=C(c1c(F)cccc1F)N1CSCN(CC(F)(F)F)C1=O` [II-64], the “rate of dead pests (%)” value in the experiment with Spodoptera litura [2] (25 ppm) worked out at 95%.
The same measure, in the same setting: with `COC(=O)C(=O)N1CN(C(=O)c2c(F)cccc2F)C(=O)N(c2ccc(Cl)cc2)C1` [III-15] the figure was 95%; with `CC[S+]([O-])c1ccc(N2COCN(C(=O)c3c(F)cccc3F)C2=O)c(F)c1` (stereo not shown) [I-48], 100%.
As to `CC(c1ccccc1)N1CN(C(=O)c2c(F)cccc2F)C(=O)N(c2ccc(Cl)cc2)C1` (stereo not shown) [III-14], the “rate of dead pests (%)” value in the experiment on Spodoptera litura [1] is recorded as 100%.
For `C=CCN1CN(C(=O)c2c(F)cccc2F)C(=O)N(c2ccc(Cl)cc2)C1` [III-5, 5-allyl-1-(4-chlorophenyl)-3-(2,6-difluorobenzoyl)tetrahydro-1,3,5-triazin-2 (1H)-one], the pest or weed control at 100 ppm in the experiment on Spodoptera litura [1] turned out to be 100%.
Regarding `O=C(c1c(F)cccc1Cl)N1COCN(c2c(F)cc([S+]([O-])C(F)(F)F)cc2Cl)C1=O` (stereo not shown) [I-279], the “rate of dead pests (%)” value in the experiment with Spodoptera litura [1] turned out to be 100%.
Still for that read-out and setting: with `O=C(c1c(F)cccc1Cl)N1COCN(c2ccc([S+]([O-])C(F)(F)F)c(F)c2)C1=O` (stereo not shown) [I-258] the figure was 100%.
On to `O=C(OCc1ccccc1)N1CN(C(=O)c2c(F)cccc2F)C(=O)N(c2ccc(Oc3ccc(C(F)(F)F)cc3Cl)cc2F)C1` [III-22, 5-benzyloxycarbonyl-1-[4-(2-chloro-4-trifluoromethylphenoxy)-2-fluorophenyl]-3-(2,6-difluorobenzoyl)tetrahydro-1,3,5-triazin-2(1H)-one], for which the pest or weed control at 100 ppm with Spodoptera litura [1] is 100%.
In the case of `Cc1c(N2COCN(C(=O)c3c(F)cccc3Cl)C2=O)ccc(SC(F)(F)F)c1Cl` [I-299], the “rate of dead pests (%)” value with Spodoptera litura [1] was 100%.
The same measure, in the same setting: the result for `Cc1c(N2COCN(C(=O)c3c(F)cccc3Cl)C2=O)ccc([S+]([O-])C(F)(F)F)c1Cl` (stereo not shown) [I-300] reads 100%; that for `O=C(c1c(F)cccc1Cl)N1COCN(c2c(F)c(F)c(SC(F)(F)F)c(F)c2F)C1=O` [I-296], 100%; that for `O=C(c1c(F)cccc1Cl)N1COCN(c2cc(F)c(SC(F)(F)F)c(F)c2)C1=O` [I-290], 100%.
Same read-out and setting: with `O=C(c1c(F)cccc1Cl)N1COCN(c2cc(Cl)c([S+]([O-])C(F)(F)F)cc2F)C1=O` (stereo not shown) [I-276] the figure was 100%.
Same read-out and setting: the result for `Cc1cc(SC(F)(F)F)c(F)cc1N1COCN(C(=O)c2c(F)cccc2F)C1=O` [I-125] reads 100%.
Consider `Cc1cc(N2COCN(C(=O)c3c(F)cccc3F)C2=O)c(C)cc1SC(F)(F)F` [I-86], for which the “rate of dead pests (%)” value in the experiment with Spodoptera litura [1] was 100%.
On to `O=C(c1c(F)cccc1F)N1COCN(c2ccc(SC(F)(F)C(F)Cl)cc2F)C1=O` (stereo not shown) [I-7], for which, in the experiment on Spodoptera litura [1], the “rate of dead pests (%)” value is 100%.
`Cc1cc(SC(F)(F)F)c(Cl)cc1N1COCN(C(=O)c2c(F)cccc2F)C1=O` [I-89]: the “rate of dead pests (%)” value with Spodoptera litura [1] amounted to 100%.
Still for that read-out and setting: with `O=C(c1c(F)cccc1F)N1CN(Cc2ccccc2)CN(c2ccc(Oc3ccc(C(F)(F)F)cc3Cl)cc2F)C1=O` [III-29] the figure was 100%.
The same measure, in the same setting: with `Cc1c(SC(F)(F)F)ccc(N2COCN(C(=O)c3c(F)cccc3F)C2=O)c1C` [I-83] the figure was 100%.
On the same count and under the same terms, with `Cc1cc([S+]([O-])C(F)(F)F)c(C)cc1N1COCN(C(=O)c2c(F)cccc2F)C1=O` (stereo not shown) [I-87] the figure was 100%; with `O=C(c1c(F)cccc1Cl)N1COCN(c2cc(F)c(SC(F)(F)F)cc2F)C1=O` [I-287], 100%.
Turning to `O=C(c1c(F)cccc1Cl)N1COCN(c2ccc(SC(F)(F)F)c(Cl)c2)C1=O` [I-254], the “rate of dead pests (%)” value in the experiment with Spodoptera litura [1] is listed as 100%.
As to `CN1CN(C(=O)c2c(F)cccc2F)C(=O)N(c2ccc(Cl)cc2)C1` [III-1, 1-(4-chlorophenyl)-3-(2,6-difluorobenzoyl)-5-methyltetrahydro-1,3,5-triazin-2(1H)-one], the pest or weed control at 100 ppm in the experiment with Spodoptera litura [1] was 100%.
